The results in this text go back to patent publication US6623723B2, “Method for treating bronchial constriction and bronchospasm” (Cellular Sciences Inc., priority 2001, dated 2003).

This assay has as its system subjects with mild bronchial asthma. The experiment in a line: Lung function (FEV-1 and PEF by spirometry) after a single inhaled dose in mild asthmatics. Type of assay: in vivo, human. Conditions: single 5 ml inhaled dose. Here is the method:
Three concentrations of sodium pyruvate were studied; 0.5 mM, 1.5 mM and 5.0 mM. Sixty (60) subjects completed the study protocol. The 60 subjects included fifteen (15) non-asthmatic control individuals and forty-five (45) individuals with mild bronchial asthma. […] The total subject population was composed of 40 females and 20 males with a mean population age of 36.6 years (range of 18-66 years).
Individuals with mild bronchial asthma were divided into three groups of 15 subjects; each group received one of the three concentrations of sodium pyruvate. Each subject each inhaled a single dose of physiological saline (Visit 1) and on a return visit inhaled a single dose of 5.0 ml of one of the concentrations of sodium pyruvate (Visit 2).
Lung function assessments and vital signs were monitored at baseline (pre-dose) and at 15 minutes, 30 minutes 1 hour, 2 hours and 4 hours post administration. On a return visit (Visit 2), each subject inhaled a single 5 ml dose of sodium pyruvate in physiological saline. The physiological lung functions assessed included Forced Expiratory Volume in One Second (FEV-1) and Peak Expiratory Flow (PEF).
An FEV-1 and PEF values are obtained during routine spirometry testing. FEV-1 is the volume of air expelled in the first second of a forced expiration starting from full inspiration. It is the most widely accepted indicator of obstructive lung disease severity and used because it is objective and reproducible. PEF is the greatest flow rate that can be sustained for 10 milliseconds on forced expiration from full inflation of the lungs. Changes of greater than 10% FEV-1 and greater than 25% in PEF are generally accepted as clinically relevant ant were used as standards in data evaluation for this study.

As for `CC(=O)C(=O)[O-].[Na+]` [sodium pyruvate], the “percent change in FEV-1” value (0.5 mM sodium pyruvate, 15 minutes (p=0.012), 30 minutes (p=0.039), 1 hour (p=0.054), 2 hours (p=0.0001), compared to inhalation of physiological saline) was “greater than 10%”. Under “0.5 mM sodium pyruvate, 15 minutes (p=0.014), 30 minutes (p=0.027), 1 hour (p=0.012), 2 hours (p=0.024), 4 hours (p=0.018), compared to inhalation of physiological saline”, the “percent change in PEF” value is reported as “greater than 25%”. Besides, where the note is “1.5 mM sodium pyruvate”, the “change in FEV-1” value is listed as “No significant change” and the “change in PEF” value is on record as “No significant change”. For the setting “5.0 mM sodium pyruvate”, the “change in FEV-1” value is on record as “No significant change” and the “change in PEF” value was “No significant change”.
